Measurements taken from PMC6003606 (Chemical Science, 2016).
Where two headings read alike, the source gives them in different places.

Key:
MCF-7 = test: Cytotoxicity, 72 h exposure, breast carcinoma; format: cell-based, human; conditions: MCF-7, 72 h exposure
A549 = test: Cytotoxicity, 72 h exposure, lung carcinoma; format: cell-based, human; conditions: A549, 72 h exposure
HCT-15 = test: Cytotoxicity, 72 h exposure, colon carcinoma; format: cell-based, human; conditions: HCT-15, 72 h exposure
PC3 = test: Cytotoxicity, 72 h exposure, prostate carcinoma; format: cell-based, human; conditions: PC3, 72 h exposure
A498 = test: Cytotoxicity, 72 h exposure, kidney carcinoma; format: cell-based, human; conditions: A498, 72 h exposure
BxPC3 = test: Cytotoxicity, 72 h exposure, pancreatic carcinoma; format: cell-based, human; conditions: BxPC3, 72 h exposure
A375 = test: Cytotoxicity, 72 h exposure, melanoma; format: cell-based, human; conditions: A375, 72 h exposure
[1] = tested on: cancer cell lines (panel); test: Cytotoxicity averaged or compared over the cancer cell line panel; format: cell-based, human; conditions: for IC50: read-out: average IC50
[2] = tested on: HDAC activity in MCF-7 cells; conditions: free ligand; reported values, no reference given; cited from earlier work
A2780 = test: Cytotoxicity, 72 h exposure, cisplatin-sensitive ovarian cancer cells; format: cell-based, human; conditions: A2780, 72 h exposure
A2780cisR = test: Cytotoxicity, 72 h exposure, cisplatin-resistant ovarian cancer cells; format: cell-based, human
[3] = average over five cancer cell lines
[4] = average over the seven cancer cell lines

| Compound | IC50 (MCF-7) [µM] | IC50 (A549) [µM] | IC50 (HCT-15) [µM] | IC50 (PC3) [µM] | IC50 (A498) [µM] | IC50 (BxPC3) [µM] | IC50 (A375) [µM] | IC50 [1, 3] [µM] | cytotoxic IC50 of uncoordinated HDAC inhibitor ligands ([1]; tested cancer cell lines) | IC50 of extracellular ligand for cellular HDAC activity [2] | IC50 (A2780) [nM] | IC50 (A2780cisR) [µM] | IC50 [1, 4] [µM] | IC50 ([1]; over the nine cell lines) [µM] |
| --- | --- | --- | --- | --- | --- | --- | --- | --- | --- | --- | --- | --- | --- | --- |
| N.N.[Cl-].[Cl-].[OH-].[OH-].[Pt+4] [IX, ctc-[Pt(NH3)2(OH)2Cl2]] | 11.5 ± 3.71 | 22.5 ± 4.54 | 15.3 ± 3.23 | 2.98 ± 1.35 | 22 ± 0.85 | 6.23 ± 1.47 | 1.93 ± 0.75 | 7 |  |  |  |  |  |  |
| CCCC(CCC)C(=O)O [VPA, valproate] |  |  |  |  |  |  |  |  | millimolar range | mM range |  |  |  |  |
| N.N.[Cl][Pt][Cl] [cisplatin] | 17.4 ± 0.2 | 8.35 ± 0.87 | 11.3 ± 1.06 | 2.25 ± 0.82 | 17.5 ± 1.21 | 11.4 ± 1.14 | 4.03 ± 0.95 |  |  |  | 2800 ± 200 | 13.8 ± 0.2 | 10.3 | 9.9 |
| O=C1[O][Pt]2([NH][C@@H]3CCCC[C@H]3[NH]2)[O]C1=O [oxaliplatin] | 3.36 ± 0.2 | 1.46 ± 0.31 | 1.15 ± 0.43 | 5.24 ± 0.86 | 7.94 ± 1.04 | 4.15 ± 0.93 | 6.3 ± 1.11 |  |  |  | 520 ± 270 | 4.2 ± 1.6 | 4.2 |  |
| [Pt(DACH)(OH)2(ox)] | 19.9 ± 1.41 | 26.1 ± 2.89 | 18.9 ± 3.18 | 5.85 ± 1.08 | 24.4 ± 5.35 | 14.3 ± 2.09 | 6.85 ± 1.55 | 13.2 |  |  |  |  |  |  |
